Values after ≈ are worked out from the molar mass of the structure shown. Bounds are passed on as bounds.

13 compounds from ChEMBL document CHEMBL1147867, “Identification of antitumour activity of novel derivatives of 8-aryl-2,6,7,8-tetrahydroimidazo[2,1-c][1,2,4]triazine-3,4-dione and 8-aryl-4-imino-2,3,7,8-tetrahydroimidazo[2,1-c][1,2,4]triazin-3(6H)-one” (Bioorg Med Chem, 2007) can be followed below.

Data set [1] has as its system A549. In words: Anticancer activity against human A549 cells at 10 ug/ml after 72 hrs. The conditions noted are these: A549, 72 h. The format is functional.
Data set [2] relates to HeLa. As to the kind of experiment: Cytotoxicity against human HeLa cells at 10 ug/ml after 72 hrs. The format is functional.
Data set [3] can be described thus: Cell viability in HSF cells at 100 uM after 24 hrs by MTT assay. The format is functional, Homo sapiens, Fibroblast.
Data set [4] has as its system T47D. In words: Cytotoxicity against human T47D cells at 50 ug/ml after 72 hrs. The format is functional.
Data set [5] in a line: Cell viability in HSF cells at 1 uM after 24 hrs by MTT assay. The format is cell-based, Fibroblast. The conditions noted are these: human, read-out: Activity. In general terms: Tetrazolium dyes change colour on reduction, which living cells bring about.
The nature of data set [6]: Cytotoxicity against Vero cells at 50 ug/ml after 72 hrs. The format is cell-based. As to conditions: chlorocebus sabaeus, read-out: Inhibition.
The subject of data set [7] is A549. As to the kind of experiment: Anticancer activity against human A549 cells at 50 ug/ml after 72 hrs. As to conditions: A549, 72 h. The format is functional.
Data set [8] is described as follows: Cell viability in HSF cells at 50 uM after 24 hrs by MTT assay. As to conditions: human, read-out: Activity. The format is cell-based, Fibroblast.
A short description of data set [9]: Cytotoxicity against human LS180 cells at 50 ug/ml after 72 hrs. The format is functional. As to conditions: LS180, 72 h.
Data set [10] concerns HeLa. As to the kind of experiment: Cytotoxicity against human HeLa cells at 50 ug/ml after 72 hrs. The format is functional.
The nature of data set [11]: Cytotoxicity against Vero cells at 10 ug/ml after 72 hrs. The format is cell-based. The conditions noted are these: chlorocebus sabaeus, read-out: Inhibition.
Data set [12] deals with RPMI-8226. As to the kind of experiment: Cell viability in human RPMI 8226 ECACC 87012702 cancer cells at 50 uM after 24 hrs by MTT assay. The format is functional.
The nature of data set [13]: Cytotoxicity against human LS180 cells at 10 ug/ml after 72 hrs. The format is functional. As to conditions: LS180, 72 h.
For data set [14], the system named is RPMI-8226. As to the kind of experiment: Cell viability in human RPMI 8226 ECACC 87012702 cancer cells at 100 uM after 24 hrs by MTT assay. The format is functional.
Data set [15] relates to T47D. As to the kind of experiment: Cytotoxicity against human T47D cells at 10 ug/ml after 72 hrs. The format is functional.
Data set [16] deals with RPMI-8226. In words: Cell viability in human RPMI 8226 ECACC 87012702 cancer cells at 1 uM after 24 hrs by MTT assay. The format is functional.
Data set [17] deals with Staphylococcus aureus. In words: Antibacterial activity against Staphylococcus aureus after 24 hrs by microdilution broth method. The format is functional. For orientation: Dilution methods test growth across graded concentrations, often in twofold steps.
In data set [18] the test system is Staphylococcus epidermidis. In words: Antibacterial activity against Staphylococcus epidermidis after 24 hrs by microdilution broth method. The format is functional.
Data set [19] has as its system Escherichia coli. In words: Antibacterial activity against Escherichia coli after 24 hrs by microdilution broth method. The format is functional.
Data set [20] in a line: Acute toxicity in mouse. The format is organism-based. The conditions noted are these: in vivo.

For the compound `N=c1c(=O)[nH]nc2n1CCN2c1ccc(Cl)cc1`, the inhibition (usually the share of the control response that was lost under treatment) at 10 µg/mL stood at 25% in [1], 8% in data set [2], 0% in [13] and 16% in [15]. Also, the Activity in [3] was determined as 74%; in data set [12], 76%; in data set [14], 64%; in data set [16], 94%. For the same compound, the inhibition at 50 µg/mL in data set [4] was determined as 27%; in [7] it was 27%; in [9] it was 5%; in [10], 0%. The viability at 24 h, 1 µM in [5] was found to be 98%. The cytotoxicity at 72 h, 50 ug/ml in data set [6] was found to be 0%. For the same compound, in data set [8], the viability at 24 h, 50 µM worked out at 84%. Further, the cytotoxicity at 72 h, 10 ug/ml in data set [11] is 0%.
As for `N/N=C1\NCCN1c1cccc(Cl)c1`, the inhibition at 10 µg/mL in data set [2] was determined as 0%; in [13], 8%; in data set [15], 5%. Also, the inhibition at 50 µg/mL in data set [4], in [9] and in data set [10] was 0% throughout. Moreover, the cytotoxicity at 72 h, 50 ug/ml in data set [6] came out at 10%. In data set [11], the cytotoxicity at 72 h, 10 ug/ml was found to be 0%.
As to `N/N=C1\NCCN1c1ccccc1Cl`, the inhibition at 10 µg/mL in data set [2] turned out to be 2%; in data set [13] it was 7%; in data set [15], 22%. The inhibition at 50 µg/mL in data set [4] was 27%; in data set [9], 0%; in data set [10] it was 0%. For the same compound, the cytotoxicity at 72 h, 50 ug/ml in [6] was 0%. The cytotoxicity at 72 h, 10 ug/ml in data set [11] came out at 0%.
Take `CC1(C)S[C@@H]2[C@H](NC(=O)[C@H](N)c3ccccc3)C(=O)N2[C@H]1C(=O)O` [AMPICILLIN]: the MIC – broadly, the smallest concentration in the dilution series that meets the test's criterion for growth inhibition – was 35.8 µM (≈ 12.5 µg/mL) in data set [17], 71.5 µM (≈ 25 µg/mL) in data set [18] and 35.8 µM (≈ 12.5 µg/mL) in data set [19].
For the compound `O=c1[nH]nc2n(c1=O)CCN2c1ccc(Cl)c(Cl)c1`, the Activity in [3] came out at 90%; in [12], 35%; in data set [14], 25%; in data set [16], 98%. Moreover, in data set [5], the viability at 24 h, 1 µM was determined as 109%. Moreover, the viability at 24 h, 50 µM in data set [8] was 90%.
As for `O=c1[nH]nc2n(c1=O)CCN2c1cccc(Cl)c1`, the inhibition at 10 µg/mL in data set [1] amounted to 0%; in data set [2] it was 27%; in data set [13] it was 0%; in data set [15] it was 0%. Moreover, the Activity in [3] turned out to be 91%; in data set [12] it was 68%; in data set [14] it was 62%; in [16], 89%. Also, the inhibition at 50 µg/mL in [4] amounted to 0%; in data set [7], 0%; in data set [9] it was 0%; in data set [10], 38%. Also, the viability at 24 h, 1 µM in data set [5] is 95%. In data set [6], the cytotoxicity at 72 h, 50 ug/ml stood at 24%. Besides, in data set [8], the viability at 24 h, 50 µM stood at 91%. The cytotoxicity at 72 h, 10 ug/ml in [11] was 11%. Moreover, the LD50 – broadly, the dose at which mortality reaches 50% – in data set [20] is > 2000 mg/kg.
Turning to `Cc1cccc(N2CCn3c2n[nH]c(=O)c3=O)c1C`, the inhibition at 10 µg/mL in data set [1] was found to be 0%; in data set [2], 0%; in data set [13], 0%; in data set [15] it was 21%. Further, the inhibition at 50 µg/mL came to 22% in data set [4], 0% in data set [7], 0% in data set [9] and 0% in data set [10]. Besides, the cytotoxicity at 72 h, 50 ug/ml in data set [6] worked out at 18%. Also, the cytotoxicity at 72 h, 10 ug/ml in [11] came to 18%.
`O=C(N[C@H](CO)[C@H](O)c1ccc([N+](=O)[O-])cc1)C(Cl)Cl` [CHLORAMPHENICOL]: the MIC in data set [17] worked out at 12.1 µM (≈ 3.91 µg/mL); in data set [18], 6 µM (≈ 1.94 µg/mL); in data set [19] it was 12.1 µM (≈ 3.91 µg/mL).
Turning to `N=c1c(=O)[nH]nc2n1CCN2c1ccccc1Cl`, the inhibition at 10 µg/mL was determined as 6% in [1], 0% in data set [2], 6% in [13] and 0% in [15]. Further, the Activity in [3] was 101%; in data set [12], 94%; in [14] it was 93%; in [16] it was 93%. Moreover, the inhibition at 50 µg/mL in data set [4] was determined as 0%; in data set [7] it was 16%; in data set [9], 2%; in [10], 0%. Also, the viability at 24 h, 1 µM in data set [5] is 100%. The cytotoxicity at 72 h, 50 ug/ml in [6] came out at 2%. The viability at 24 h, 50 µM in [8] is 104%. Moreover, the cytotoxicity at 72 h, 10 ug/ml in data set [11] was determined as 0%.
Take `Cc1ccc(N2CCN/C2=N\N)cc1`: the results for the inhibition at 10 µg/mL in data set [2], in [13] and in data set [15] were 3%, 11% and 12%, respectively. Moreover, the figures for the inhibition at 50 µg/mL in data set [4], in data set [9] and in data set [10] were 17%, 15% and 0%, respectively. In data set [6], the cytotoxicity at 72 h, 50 ug/ml is 9%. The cytotoxicity at 72 h, 10 ug/ml in [11] was found to be 0%.
Turning to `N=c1c(=O)[nH]nc2n1CCN2c1cccc(Cl)c1`, the inhibition at 10 µg/mL in data set [1] stood at 36%; in [2], 6%; in [13] it was 0%; in data set [15] it was 3%. For the same compound, the inhibition at 50 µg/mL in data set [4] was 31%; in data set [7], 50%; in data set [9], 1%; in [10], 2%. For the same compound, the cytotoxicity at 72 h, 50 ug/ml in data set [6] turned out to be 0%. Besides, in data set [11], the cytotoxicity at 72 h, 10 ug/ml stood at 0%.
As to `N=c1c(=O)[nH]nc2n1CCN2c1ccccc1`, the inhibition at 10 µg/mL in [1] was found to be 7%; in data set [2], 30%; in [13] it was 0%; in [15], 0%. In addition, the Activity in data set [3] was 106%; in data set [12], 103%; in data set [14], 106%; in [16], 95%. The inhibition at 50 µg/mL in data set [4] came to 3%; in data set [7], 38%; in data set [9], 1%; in data set [10], 34%. For the same compound, the viability at 24 h, 1 µM in data set [5] turned out to be 101%. The cytotoxicity at 72 h, 50 ug/ml in [6] is 30%. In addition, the viability at 24 h, 50 µM in data set [8] worked out at 103%. The cytotoxicity at 72 h, 10 ug/ml in [11] is 26%.
Take `Cc1ccccc1N1CCn2c1n[nH]c(=O)c2=O`: the inhibition at 10 µg/mL was found to be 24% in data set [1], 0% in data set [2], 0% in data set [13] and 0% in data set [15]. Moreover, the Activity is reported as 108% in data set [3], 121% in data set [12], 133% in data set [14] and 101% in [16]. The inhibition at 50 µg/mL was 0% in [4], 29% in data set [7], 0% in data set [9] and 0% in data set [10]. Further, the viability at 24 h, 1 µM in [5] is 104%. In addition, in data set [6], the cytotoxicity at 72 h, 50 ug/ml came out at 0%. Besides, in data set [8], the viability at 24 h, 50 µM was 110%. The cytotoxicity at 72 h, 10 ug/ml in data set [11] was 0%.
